Measured values taken from patent US11504362B2, “Liquid dosage forms to treat cancer” (Exelixis, Inc., priority 2017, dated 2022).
Entries after “also recorded” stand apart in the source; their conditions may differ. Where two headings read alike, the source gives them in different places.

Assays:
[1] = cited from earlier work; for CL/F / t1/2 / Tmax / Cmax: single oral 140 mg FBE; for CL/F / t1/2 / Cmax: mean ± CV %; for Tmax: median (minimum, maximum); for Cmax: plasma, n = 72
[2] = Plasma pharmacokinetics of XL184 and metabolites by LC/MS/MS method; settings: human, in vivo
Protocol: (§1) Pharmacokinetics: Serial blood, urine, and feces were collected at specified times following dosing.
(§2) All samples collected for radioactivity analysis were analyzed for total radioactivity.
Detailed reports of the bioanalytical methodologies and results accompany the clinical study report.
The other minor metabolite in plasma, p-Fluoroaniline, was analyzed by Exelixis using a validated LC/MS/MS method.
PK variables were computed using WinNonlin Professional, version 5.2.

[3] = molecular target: VEGFR2 (Mus musculus, UniProt P35918); settings: administration to mice; Yakes, et al. 2011; cited from earlier work
[4] = male, human, in vivo
Protocol: as §1, §2
Blood samples (4 mL) for whole blood analysis of total radioactivity were collected within 15 minutes pre-dose and at 1, 2, 4, 8, 14, 24, and 72 hours post-dose. Prior to study initiation, the Celerion Scintillation Laboratory supplied to the Celerion clinic complete written instructions for collection, handling, and processing of samples. Samples collected were used to determine the percentage of radioactivity associated with erythrocytes in whole blood over time (calculated only for time points that whole blood was collected).
Individual dosing containers (including the dosage form) were analyzed pre-dose and post-dose for radioactivity, with the (post-dose−pre-dose) difference being the administered dose. Whole blood, plasma, urine, feces, and emesis (if applicable) were analyzed for radioactivity content by liquid scintillation counting procedures. Whole blood and fecal samples were dried and oxidized prior to counting. Detailed reports of scintillation counting method and results for total radioactivity accompany the clinical study report. […]
The Cmax and time to peak concentration (tmax) were directly determined from the observed blood/plasma concentrations data. […]

[5] = Safety evaluation (AEs, vital signs, ECG, laboratory tests) in Phase 1 mass balance study; format: in vivo, human
Protocol: Safety: Safety evaluations included assessments of AEs, vital signs, electrocardiogram (ECG), laboratory tests, and concomitant medications. Adverse event seriousness, severity grade, and relationship to study treatment were assessed by the investigator. Severity grade was defined by the National Cancer Institute Common Terminology Criteria for Adverse Events (CTCAE) version 4.0.
Adverse event terms were standardized using the Medical Dictionary for Regulatory Activities and tabulated by system organ class and preferred term.

[6] = po, 175 mg, Plasma concentration of XL184 by LC/MS/MS, single 175 mg oral XL184 L-malate, healthy male subjects, […], individual subject

Sequence of VEGFR2 (P35918 20-1345): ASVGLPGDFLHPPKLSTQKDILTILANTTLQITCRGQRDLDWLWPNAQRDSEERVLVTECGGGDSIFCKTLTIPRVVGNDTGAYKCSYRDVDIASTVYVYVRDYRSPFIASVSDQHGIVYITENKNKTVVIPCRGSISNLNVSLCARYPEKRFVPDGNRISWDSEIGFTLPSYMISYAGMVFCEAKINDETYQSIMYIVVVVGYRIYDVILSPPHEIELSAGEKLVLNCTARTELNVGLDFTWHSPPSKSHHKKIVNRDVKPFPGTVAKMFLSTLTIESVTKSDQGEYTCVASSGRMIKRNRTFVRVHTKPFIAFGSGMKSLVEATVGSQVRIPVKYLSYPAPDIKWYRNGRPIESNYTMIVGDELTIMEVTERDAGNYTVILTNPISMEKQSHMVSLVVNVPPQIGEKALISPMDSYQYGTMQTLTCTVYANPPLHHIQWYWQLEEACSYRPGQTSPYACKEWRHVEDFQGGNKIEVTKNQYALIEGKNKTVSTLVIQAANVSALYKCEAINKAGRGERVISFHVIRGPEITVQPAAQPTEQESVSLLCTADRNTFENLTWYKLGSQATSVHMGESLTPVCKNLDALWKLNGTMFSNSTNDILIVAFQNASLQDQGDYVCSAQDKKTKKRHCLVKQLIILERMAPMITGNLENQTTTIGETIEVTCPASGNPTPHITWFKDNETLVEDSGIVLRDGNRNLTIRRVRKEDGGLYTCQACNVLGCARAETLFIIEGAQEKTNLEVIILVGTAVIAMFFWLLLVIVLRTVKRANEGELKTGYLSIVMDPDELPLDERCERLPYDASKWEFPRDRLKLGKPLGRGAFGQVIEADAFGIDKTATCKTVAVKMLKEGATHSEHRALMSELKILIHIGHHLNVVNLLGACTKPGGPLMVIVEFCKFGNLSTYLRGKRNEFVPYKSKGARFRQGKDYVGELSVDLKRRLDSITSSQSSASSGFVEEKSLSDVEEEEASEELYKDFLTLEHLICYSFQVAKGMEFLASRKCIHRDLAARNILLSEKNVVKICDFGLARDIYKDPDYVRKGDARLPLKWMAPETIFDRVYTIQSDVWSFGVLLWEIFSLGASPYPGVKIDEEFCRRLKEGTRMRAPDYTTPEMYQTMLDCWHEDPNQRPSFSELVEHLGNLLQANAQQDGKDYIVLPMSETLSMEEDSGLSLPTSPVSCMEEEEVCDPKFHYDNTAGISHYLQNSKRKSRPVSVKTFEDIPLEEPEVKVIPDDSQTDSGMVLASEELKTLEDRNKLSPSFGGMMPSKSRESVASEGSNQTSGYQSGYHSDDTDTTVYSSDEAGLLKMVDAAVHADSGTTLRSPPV

**Q.** What does the source list for COc1cc2nccc(Oc3ccc(NC(=O)C4(C(=O)Nc5ccc(F)cc5)CC4)cc3)c2cc1OC [XL184, N-(4-{[6,7-bis(methyloxy)quinolin-4-yl]oxy}phenyl)-N′-(4-fluorophenyl)cyclopropane-1,1-dicarboxamide]?
**A.** % CV of Cmax, AUC0-t, and AUC0-inf ([1]; 20 mg (FBE) tablet strength): 48-72%; % CV of Cmax, AUC0-t, and AUC0-inf ([1]; 40 mg (FBE) tablet strength): 42-56%; % CV of Cmax, AUC0-t, and AUC0-inf ([1]; 60 mg (FBE) tablet strength): 38-41%; % CV of AUC0-inf ([1]; 140 mg (FBE) capsule): ~39%; % CV of AUC0-t ([1]; 140 mg (FBE) capsule): ~37%; % CV of Cmax ([1]; 140 mg (FBE) capsule): ~43%; % CV of AUC0-inf ([1]; 140 mg (FBE) tablet): ~46%; % CV of AUC0-t ([1]; 140 mg (FBE) tablet): ~44%; % CV of Cmax ([1]; 140 mg (FBE) tablet): about 54%; CL/F ([1]; capsule formulation): 2.69 ± 32 L/h; t1/2 ([1]; capsule formulation): 112 ± 26 h; Tmax ([1]; capsule formulation): 4.00 (2.00, 5.04) h; Cmax ([1]; capsule formulation): 0.554 ± 0.043 µg/mL; CL/F ([1]; tablet formulation): 2.61 ± 49 L/h; t1/2 ([1]; tablet formulation): 115 ± 31 h; Tmax ([1]; tablet formulation): 3.49 (1.99, 24.00) h; Cmax ([1]; tablet formulation): 0.702 ± 0.054 µg/mL; concentration at 8 h ([2]; po, 175 mg, Plasma Concentrations of XL184 by LC/MS/MS Method, single 175 mg oral dose, Min (N=8)): 0.267 µg/mL; concentration at 8 h ([2]; po, 175 mg, Plasma Concentrations of XL184 by LC/MS/MS Method, single 175 mg oral dose, individual subjects): 0.532 µg/mL; concentration at 14 h ([2]; po, 175 mg, Plasma Concentrations of XL184 by LC/MS/MS Method, 14.00 h, single 175 mg oral dose, individual subjects): 0.488 µg/mL; concentration at 48 h [2, 6]: 0.352 µg/mL; concentration at 120 h [2, 6]: 0.156 µg/mL; AUC0-24 ([2]; male): 14300 ± 2600 (18) h · ng/mL; AUC0-72 ([2]; male): 35000 ± 6770 (19) h · ng/mL; AUC0-inf ([2]; male): 68000 ± 6910 (10) h · ng/mL; AUC0-t ([2]; male): 67200 ± 6880 (10) h · ng/mL; Tmax ([2]; male): 1.49 (1.00, 3.00) h; Tmax ([2]; male, Tmax): ~1.49 h; AUC0-t ([2]; male, po, 175 mg, AUC0-24): 17.6 µg·h/mL; AUC0-t ([2]; male, po, 175 mg, AUC0-72): 46.8 µg·h/mL; AUC0-inf ([2]; male, po, 175 mg, AUC0-inf): 73.1 µg·h/mL; AUC0-t ([2]; male, po, 175 mg, AUC0-t): 72.9 µg·h/mL; Cmax ([2]; male, po, 175 mg, Cmax): 1.25 µg/mL; half-life ([2]; male, po, 175 mg, t1/2): 69 h; Inhibition of VEGFR2 in vivo [3]: dose-dependent inhibition; kel of total radioactivity [4]: 0.00308 h⁻¹; Total number of TEAEs ([5]; 8 subjects): 36; TEAEs resolved within 1 to 3 days ([5]; 31/36): 86%; Severity of one event of treatment related dizziness ([5]; CTCAE version 4.0): moderate (CTCAE grade 2); Severity of the majority of TEAEs ([5]; CTCAE version 4.0): mild in severity (CTCAE grade 1); Laboratory values ([5]; changes from baseline): no clinically significant changes from baseline in any laboratory values; also recorded: no notable clinical laboratory findings; Subjects reporting TEAEs assessed as related to the study treatment ([5]; five subjects): 62.5%; Vital signs and ECG evaluations ([5]; in vivo): No remarkable on study results were noted; Tolerability ([5]; single 175 mg oral dose): well tolerated; Deaths, SAEs, discontinuations due to AEs, other significant AEs ([5]; single 175 mg oral dose, 8 healthy male subjects): no deaths, other SAEs, discontinuations due to AEs, or other significant AEs; Subjects reporting TEAEs ([5]; six of 8 subjects): 75%; Subjects reporting flatulence ([5]; three subjects): 37.5%; Subjects reporting headache ([5]; three subjects): 37.5%; Vomiting after dosing ([5]; within 4 hours of dosing): No subject vomited within 4 hours of dosing
